Measured values as given in patent publication US20020071842A1, “Soluble CD1 compositions and uses thereof” (priority 2000, published 2002).

Assays:
[1] = tested on: T cells in PBMCs purified from a healthy donor; assay: Three color flow cytometric staining of PBMCs with lipid loaded CD1d-Fc aggregates; assay type: cell-based, human; details: CD1d-Fc aggregate treated with antigen, anti-CD3 and anti-CD161 co-staining
Method: To facilitate binding to CD1 specific T cells for detection by flow cytometry, a highly multimerized form of the CD1d fusion protein was formed using fluorescently labeled protein A molecules. Protein A molecules spontaneously associate in solution at neutral pH with immunoglobulin Fc regions, forming complexes containing four Fc molecules and two protein A molecules (4+2 complexes, reference 2). The human CD1d-Fc fusion protein was incubated with Alexa 488 dye labeled protein A, and the 4+2 complexes purified by size exclusion chromatography on a Pharmacia Superose 6 column using PBS pH 7.2 as a running buffer. The purified 4+2 aggregates were concentrated to 100 μg/ml with ovalbumin as a carrier protein. The CD1d-Fc aggregate was then pre-incubated for 24 to 48 hours at 37° C. with antigenic glycolipids dissolved in DMSO at a 40:1 molar ratio of lipid to fusion protein, or with an equivalent volume of DMSO alone as a negative control. The T cell staining was performed at room temperature or 4° C. for 20 min, at a concentration of 40 μg/ml of the lipid or control treated CD1d-Fc aggregate.
To facilitate binding to CD1 specific T cells for detection by flow cytometry, a highly multimerized form of the CD1d fusion protein is formed using fluorescently labeled protein A molecules. […]

[2] = tested on: α-GalCer reactive NKT cell hybridomas; assay: Plate-bound mCD1d fusion protein hybridoma stimulation assay, hybridoma panel; assay type: cell-based, mouse; details: some of the α-GalCer reactive NKT cell hybridomas
Text: Our observation that two NKT cell hybridomas, 24.8.A and 24.9.E, differed in their antigen reactivity, raised the possibility that NKT cells may have heterogeneous antigen specificities. To extend our analysis of NKT cells, and to compare antigen recognition by mCD1d-restricted T cells of the diverse TCR population, we tested 9 NKT and 8 diverse TCR mCD1d-restricted hybridomas for recognition of 14 purified and synthetic lipid antigens (see Tables 1 and 2). None of the hybridomas produced detectable IL-2 in response to a negative control protein, and only the 24.8.A hybridoma secreted detectable IL-2 in response to untreated mCD1d fusion protein (Table 2). Eight out of nine NKT cell hybridomas were potently stimulated by α-GalCer treated fusion protein, whereas none of the diverse TCR hybridomas reproducibly recognized this antigen (Table 2). […]
IL-2 secreted in the hybridoma stimulation assays was quantitated in a double antibody sandwich ELISA, by comparison to a standard curve of purified murine IL-2 (Pharmingen, San Diego, Calif.). […] IL-2 was detected by addition of a biotinylated rat anti-mouse IL-2 antibody, followed by addition of a streptavidin-alkaline phophatase conjugate, and a chromogenic substrate. The pg/ml of IL-2 present in the hybridoma supernatants was quantitated by linear regression of the IL-2 standard curve.

Compound	T cells stained relative to CD1d-Fc treated with DMSO alone [1]	T cells stained relative to the UPC10 negative control [1]	activity relative to synthetic α-GalCer [2]
CCCCCCCCCCCCCCCCCCCCCCCCCC(=O)N[C@@H](CO[C@H]1O[C@H](CO)[C@H](O)[C@H](O)[C@H]1O)[C@H](O)[C@H](O)CCCCCCCCCCCCCC [α-GalCer, α-galactosylceramide]	about 6 fold	about 10 fold	–
phosphatidylinositol [PI]	–	–	10-20%
